Experimental data published in patent US5646028A, “Alkaline serine protease streptomyces griseus var. alkaliphus having enhanced stability against urea or guanidine” (The Clorox Company, priority 1995, dated 1997).
“And” between values parts separate entries of the source, which are not always exact repeats. Equal values may be shown once. *1 amine or outer side, *2 acyl side, *3 side chain or, on linkers, in order; H or OH if unused. Where a SMILES comes first, the peptide text is derived from it. The star is where a group is joined. pNA = O=[N+]([O-])c1ccc(N*)cc1; Suc = O=C(CCC(=O)[*:2])[*:1]

What was measured:
[1] = system: SGPC; assay: Substrate specificity of SGPC with tetrapeptide substrates sAAPXpNA; assay type: biochemical, Streptomyces griseus; conditions: pH 8.0, 10% DMSO, 24° C.
Procedure: The enzyme was assayed with a series of tetrapeptide substrates which had the form succinyl-Ala-Ala-Pro-X-para-nitroanilide (sAAPXpNA) (SEQ ID NOS. 3-20), where X is the P1 amino acid (the residue found on the N-terminal side of the bond which is cleaved). Kinetics constants kcat and Km were determined by assaying an appropriate dilution of SGPC with eight different concentrations of each substrate. Each substrate was dissolved in 100% DMSO to a concentration of 100 mM with the exception of sAAPQpNA (SEQ ID NO. 13) which was soluble only to a concentration of 15 mM. Five ul of an appropriate dilution of SGPC was placed in the wells of a microtiter dish. The reaction was initiated by adding 95 ul of the reaction mixture which was comprised of 50 ul of sodium bicine, pH 8.0, 35 ul of water, and 10 ul of the appropriate concentration of substrate in DMSO. The final concentration of DMSO was 10% in all of the reactions. All substrate concentrations were done in triplicate and rates were determined at 24° C. using a microtiter plate reader.

[2] = system: SGPC; assay type: biochemical, Streptomyces griseus; conditions: for % remaining activity compared to a noninhibited control: pH 8

Row | Structure (SMILES) | rates seen with the substrate [1] | inhibition of SGPC (in words) [2] | % remaining activity compared to a noninhibited control [2] | Km [1] | kcat [1] | kcat /Km [1]
1 | CC[C@H](C)[C@H](NC(=O)[C@@H]1CCCN1C(=O)[C@H](C)NC(=O)[C@H](C)NC(=O)CCC(=O)O)C(=O)Nc1ccc([N+](=O)[O-])cc1 [sAAPIpNA] (Suc-AAPI-pNA) | too samll to be reliable | – | – | – | – | –
2 | O=C(O)CI [IOAc, iodoacetic acid] | – | no significant inhibition | 104% and 103% | – | – | –
3 | C[C@H](NC(=O)CCC(=O)O)C(=O)N[C@@H](C)C(=O)N1CCC[C@H]1C(=O)N[C@@H](CS)C(=O)Nc1ccc([N+](=O)[O-])cc1 [sAAPCpNA] (Suc-AAPC-pNA) | – | – | – | 4.26 mM | 61.3 S^-1 | 14,380 M^-1 S^-1
4 | O=S(=O)(F)Cc1ccccc1 [PMSF, phenylmethylsulfonyl fluoride] | – | inhibit SGPC | 0.07% and 0.06% | – | – | –
5 | O=C(O)CN(CCN(CC(=O)O)CC(=O)O)CC(=O)O [EDTA, ethylenediaminetetraacetic acid] | – | no significant inhibition | 97% and 94% | – | – | –
6 | C[C@H](NC(=O)CCC(=O)O)C(=O)N[C@@H](C)C(=O)N1CCC[C@H]1C(=O)N[C@@H](CC(=O)O)C(=O)Nc1ccc([N+](=O)[O-])cc1 [sAAPDpNA] (Suc-AAPD-pNA) | – | – | – | 19.6 mM | 6.89 S^-1 | 351 M^-1 S^-1
7 | C[C@H](NC(=O)CCC(=O)O)C(=O)N[C@@H](C)C(=O)N1CCC[C@H]1C(=O)N[C@@H](CO)C(=O)Nc1ccc([N+](=O)[O-])cc1 [sAAPSpNA] (Suc-AAPS-pNA) | – | – | – | 3.73 mM | 7.05 S^-1 | 1,893 M^-1 S^-1
8 | C[C@H](NC(=O)CCC(=O)O)C(=O)N[C@@H](C)C(=O)N1CCC[C@H]1C(=O)N[C@@H](C)C(=O)Nc1ccc([N+](=O)[O-])cc1 [sAAPApNA] (Suc-AAPA-pNA) | – | – | – | 5.29 mM | 36.1 S^-1 | 6,826 M^-1 S^-1
9 | C[C@H](NC(=O)CCC(=O)O)C(=O)N[C@@H](C)C(=O)N1CCC[C@H]1C(=O)NCC(=O)Nc1ccc([N+](=O)[O-])cc1 [sAAPGpNA] (Suc-AAPG-pNA) | too samll to be reliable | – | – | – | – | –
10 | C[C@H](NC(=O)CCC(=O)O)C(=O)N[C@@H](C)C(=O)N1CCC[C@H]1C(=O)N[C@@H](CCCCN)C(=O)Nc1ccc([N+](=O)[O-])cc1 [sAAPKpNA] (Suc-AAPK-pNA) | – | – | – | 4.22 mM | 10.9 S^-1 | 2,577 M^-1 S^-1
11 | C[C@H](NC(=O)CCC(=O)O)C(=O)N[C@@H](C)C(=O)N1CCC[C@H]1C(=O)N[C@@H](CCC(N)=O)C(=O)Nc1ccc([N+](=O)[O-])cc1 [sAAPQpNA] (Suc-AAPQ-pNA) | – | – | – | 14.3 mM | 36.3 S^-1 | 2,547 M^-1 S^-1
